In general, IC50 refers to the concentration at which inhibition is half-maximal. A low value points to inhibition by little substance.

Common to all, as to assay type: cell-based
One assay deals with LNCaP. Put plainly: Cell growth inhibition assay, prostate cancer cell line LNCaP (medium with 10 ng/mL IL-6). Particulars: Homo sapiens, medium supplemented with 10 ng/mL of IL-6, 10,000 cells/well.
The next assay deals with MDA-MB-231. Put plainly: Cell growth inhibition assay, breast cancer cell line MDA-MB-231. Particulars: Homo sapiens; MDA-MB-231 breast cancer cell line, 5,000 cells/well.
For the next assay, the target named is T1, STAT3 (Homo sapiens, UniProt P40763).
T1 construct: plasmid pSTAT3-TA-luc), which contains a stably operating STAT3 promoter; endogenous in cells
T1 sequence (P40763 whole entry): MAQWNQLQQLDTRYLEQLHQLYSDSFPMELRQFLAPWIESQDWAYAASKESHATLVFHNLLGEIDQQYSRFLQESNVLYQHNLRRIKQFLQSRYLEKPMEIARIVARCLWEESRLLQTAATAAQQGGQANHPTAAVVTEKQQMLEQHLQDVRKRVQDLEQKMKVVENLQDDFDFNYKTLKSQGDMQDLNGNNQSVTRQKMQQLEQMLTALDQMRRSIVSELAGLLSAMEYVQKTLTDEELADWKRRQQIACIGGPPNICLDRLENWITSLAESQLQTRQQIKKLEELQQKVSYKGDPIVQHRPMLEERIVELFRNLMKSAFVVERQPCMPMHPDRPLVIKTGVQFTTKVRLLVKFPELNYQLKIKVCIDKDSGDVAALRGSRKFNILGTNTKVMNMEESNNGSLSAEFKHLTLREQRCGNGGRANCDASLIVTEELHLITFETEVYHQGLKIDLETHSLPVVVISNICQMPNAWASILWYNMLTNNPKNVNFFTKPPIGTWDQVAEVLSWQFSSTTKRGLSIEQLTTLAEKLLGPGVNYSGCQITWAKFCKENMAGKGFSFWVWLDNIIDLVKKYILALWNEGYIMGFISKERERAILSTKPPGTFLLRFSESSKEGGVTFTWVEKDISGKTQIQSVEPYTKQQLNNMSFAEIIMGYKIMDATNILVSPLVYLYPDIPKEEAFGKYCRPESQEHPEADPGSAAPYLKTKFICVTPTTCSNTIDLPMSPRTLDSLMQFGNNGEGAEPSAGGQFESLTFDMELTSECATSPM
Put plainly: STAT3 reporter gene assay (luciferase), LNCaP stable cell line (pSTAT3-TA-luc), IL-6 stimulation. The procedure, abridged: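 LNCaP cells stably carrying pSTAT3-TA-luc, in RPMI1640 with 3% DCC-FBS, were treated with compound and then stimulated with 10 ng/mL IL-6 for 24–48 h at 37 °C. Luciferase activity was measured in lysates. A parallel plate measured viability by CellTiter-Glo, with stimulated 0.1% DMSO wells as the positive control.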

A value given as a limit tells only on which side of the number the result lay.

As to `CS(=O)(=O)Nc1ccc2cc(C(=O)Nc3cc(CC#N)cc(-c4ccc(F)cc4F)c3)[nH]c2c1` [Example 363, N-(5-(cyanomethyl)-2′,4′-difluoro-[1,1′-biphenyl]-3-yl)-6-(methylsulfonamido)-1H-indole-2-carboxamide], the IC50 in the assay on LNCaP worked out at 2.4 µM; in the assay on MDA-MB-231, 0.88 µM; on STAT3, 1.3 µM.
With `CS(=O)(=O)Nc1ccc2cc(C(=O)Nc3cc(-c4ccc(O)nc4)cc(-c4ccc(F)cc4F)c3)[nH]c2c1` [Example 364, N-(2′,4′-difluoro-5-(6-hydroxypyridin-3-yl)-[1,1′-biphenyl]-3-yl)-6-(methylsulfonamido)-1H-indole-2-carboxamide], the concentration for half-maximal inhibition (IC50) in the assay with LNCaP, in the assay on MDA-MB-231 and on STAT3 was over 10 µM in each case.
Take `C#Cc1cc(NC(=O)c2cc3ccc(NS(C)(=O)=O)cc3[nH]2)cc(-c2ccc(F)cc2F)c1` [Example 365, N-(5-ethynyl-2′,4′-difluoro-[1,1′-biphenyl]-3-yl)-6-(methylsulfonamido)-1H-indole-2-carboxamide]: the figures for the IC50 in the assay on LNCaP, in the assay with MDA-MB-231 and at STAT3 were 2.8 µM, 0.32 µM and 0.4 µM, respectively.
As for `CS(=O)(=O)Nc1ccc2cc(C(=O)Nc3cc(OC(F)F)cc(-c4ccc(F)cc4F)c3)[nH]c2c1` [Example 369, N-(5-(difluoromethoxy)-2′,4′-difluoro-[1,1′-biphenyl]-3-yl)-6-(methylsulfonamido)-1H-indole-2-carboxamide], the figures for the IC50 in the assay with LNCaP, in the assay on MDA-MB-231 and against STAT3 were 3.8 µM, 0.28 µM and 0.7 µM, respectively.
With `CS(=O)(=O)Nc1ccc2sc(C(=O)Nc3cc(OC(F)F)cc(-c4ccc(F)cc4F)c3)cc2c1` [Example 370, N-(5-(difluoromethoxy)-2′,4′-difluoro-[1,1′-biphenyl]-3-yl)-5-(methylsulfonamido)benzo[b]thiophene-2-carboxamide], the IC50 in the assay on LNCaP was 0.6 µM; in the assay on MDA-MB-231 it was 0.032 µM; against STAT3 it was 0.21 µM.
Regarding `CS(=O)(=O)Nc1ccc2cc(C(=O)Nc3cc(-c4ccc(F)cc4F)cc(N4CCCCC4)c3)[nH]c2c1` [Example 371, N-(2′,4′-difluoro-5-(piperidin-1-yl)-[1,1′-biphenyl]-3-yl)-6-(methylsulfonamido)-1H-indole-2-carboxamide], the results for the IC50 with LNCaP, in the assay with MDA-MB-231 and on STAT3 were 7.8 µM, 1.4 µM and 0.9 µM, respectively.
Regarding `CN(C)c1cc(NC(=O)c2cc3ccc(NS(C)(=O)=O)cc3[nH]2)cc(-c2ccc(F)cc2F)c1` [Example 372, N-(5-(dimethylamino)-2′,4′-difluoro-[1,1′-biphenyl]-3-yl)-6-(methylsulfonamido)-1H-indole-2-carboxamide], the values for the IC50 in the assay on LNCaP, in the assay with MDA-MB-231 and at STAT3 were 3.5 µM, 0.46 µM and 0.34 µM, respectively.
In the same order, the values of `CNc1cc(NC(=O)c2cc3ccc(NS(C)(=O)=O)cc3[nH]2)cc(-c2ccc(F)cc2F)c1` [Example 373, N-(2′,4′-difluoro-5-(methylamino)-[1,1′-biphenyl]-3-yl)-6-(methylsulfonamido)-1H-indole-2-carboxamide] are 4.4 µM, 1 µM and 1.5 µM.
Taken in the same sequence, the figures for `CS(=O)(=O)Nc1ccc2cc(C(=O)Nc3cc(-c4ccc(F)cc4F)cc(N4CCOCC4)c3)[nH]c2c1` [Example 374, N-(2′,4′-difluoro-5-morpholino-[1,1′-biphenyl]-3-yl)-6-(methylsulfonamido)-1H-indole-2-carboxamide] were 9.9 µM, 2.7 µM and 6.4 µM.
In the same order, the values of `CN(C)c1cc(NC(=O)c2cc3cc(NS(C)(=O)=O)ccc3s2)cc(-c2ccc(F)cc2F)c1` [Example 375, N-(5-(dimethylamino)-2′,4′-difluoro-[1,1′-biphenyl]-3-yl)-5-(methylsulfonamido)benzo[b]thiophene-2-carboxamide] are 1.1 µM, 0.028 µM and 0.14 µM.
Turning to `CN(C)c1cc(NC(=O)c2cc3cc(NS(C)(=O)=O)ccc3o2)cc(-c2ccc(F)cc2F)c1` [Example 376, N-(5-(dimethylamino)-2′,4′-difluoro-[1,1′-biphenyl]-3-yl)-5-(methylsulfonamido)benzofuran-2-carboxamide], the IC50 in the assay with LNCaP worked out at 7.7 µM; in the assay on MDA-MB-231, 1.3 µM; on STAT3 it was 5.2 µM.
For `COc1ccc(-c2cc(NC(=O)c3cc4ccc(NS(C)(=O)=O)cc4[nH]3)cc(-c3ccc(F)cc3F)c2)cn1` [Example 382, N-(2′,4′-difluoro-5-(6-methoxypyridin-3-yl)-[1,1′-biphenyl]-3-yl)-6-(methylsulfonamido)-1H-indole-2-carboxamide], the IC50 in the assay on LNCaP stood at 3.8 µM; in the assay with MDA-MB-231, 0.91 µM; at STAT3, 0.33 µM.
Regarding `COc1cccc(-c2cc(NC(=O)c3cc4ccc(NS(C)(=O)=O)cc4[nH]3)cc(-c3ccc(F)cc3F)c2)n1` [Example 383, N-(2′,4′-difluoro-5-(6-methoxypyridin-2-yl)-[1,1′-biphenyl]-3-yl)-6-(methylsulfonamido)-1H-indole-2-carboxamide], the IC50 with LNCaP was 4.3 µM; in the assay with MDA-MB-231, 2.33 µM; against STAT3, 0.09 µM.
As for `CS(=O)(=O)Nc1ccc2cc(C(=O)Nc3cc(-c4cccc(O)n4)cc(-c4ccc(F)cc4F)c3)[nH]c2c1` [Example 384, N-(2′,4′-difluoro-5-(6-hydroxypyridin-2-yl)-[1,1′-biphenyl]-3-yl)-6-(methylsulfonamido)-1H-indole-2-carboxamide], the IC50 in the assay with LNCaP, in the assay with MDA-MB-231 and at STAT3 was over 10 µM each time.
As to `CS(=O)(=O)Nc1ccc2cc(C(=O)Nc3cccc(C(F)(F)c4ccccc4)c3)[nH]c2c1` [Example 387, N-(3-(difluoro(phenyl)methyl)phenyl)-6-(methylsulfonamido)-1H-indole-2-carboxamide], the IC50 with LNCaP turned out to be 3.5 µM; in the assay on MDA-MB-231 it was 1.17 µM; at STAT3, 2.4 µM.
In the same order, the values of `CS(=O)(=O)Nc1ccc2cc(C(=O)Nc3cccc(S(=O)(=O)c4cccc(N)c4)c3)[nH]c2c1` [Example 415, N-(3-((3-aminophenyl)sulfonyl)phenyl)-6-(methylsulfonamido)-1H-indole-2-carboxamide] are over 10 µM, 8.4 µM and 6.8 µM.
Consider `C#Cc1cccc(S(=O)(=O)c2cccc(NC(=O)c3cc4ccc(NS(C)(=O)=O)cc4[nH]3)c2)c1` [Example 416], for which the figures for the IC50 with LNCaP, in the assay with MDA-MB-231 and against STAT3 were 9 µM, 2.6 µM and 6 µM, respectively.
Turning to `CS(=O)(=O)Nc1ccc2cc(C(=O)Nc3cccc(S(=O)(=O)c4cc(O)cc(C#N)c4)c3)[nH]c2c1` [Example 417, N-(3-((3-cyano-5-hydroxyphenyl)sulfonyl)phenyl)-6-(methylsulfonamido)-1H-indole-2-carboxamide], the IC50 with LNCaP, with MDA-MB-231 and against STAT3 was over 10 µM in each case.
Consider `CS(=O)(=O)Nc1ccc2sc(C(=O)Nc3cccc(C4(c5ccccc5)CC4)c3)cc2c1` [Example 421, 5-(methylsulfonamido)-N-(3-(1-phenylcyclopropyl)phenyl)benzo[b]thiophene-2-carboxamide], for which the IC50 in the assay with LNCaP was 1.1 µM; in the assay with MDA-MB-231 it was 0.089 µM; on STAT3 it was 0.2 µM.
On to `CS(=O)(=O)Nc1ccc2cc(C(=O)Nc3cccc(C4(c5ccccc5)CC4)c3)[nH]c2c1` [Example 422, 6-(methylsulfonamido)-N-(3-(1-phenylcyclopropyl)phenyl)-1H-indole-2-carboxamide], for which the figures for the IC50 in the assay with LNCaP, in the assay with MDA-MB-231 and on STAT3 were 2.1 µM, 0.54 µM and 0.76 µM, respectively.
Regarding `C=C(c1ccccc1)c1cccc(NC(=O)c2cc3cc(NS(C)(=O)=O)ccc3s2)c1` [Example 423, 5-(methylsulfonamido)-N-(3-(1-phenylvinyl)phenyl)benzo[b]thiophene-2-carboxamide], the results for the IC50 in the assay with LNCaP, with MDA-MB-231 and on STAT3 were 1.1 µM, 0.094 µM and 0.26 µM, respectively.
For the molecule `CS(=O)(=O)Nc1ccc2sc(C(=O)Nc3cccc(C4(c5ccc(F)cc5)CC4)c3)cc2c1` [Example 424, N-(3-(1-(4-fluorophenyl)cyclopropyl)phenyl)-5-(methylsulfonamido)benzo[b]thiophene-2-carboxamide], the IC50 in the assay on LNCaP worked out at 0.5 µM; in the assay with MDA-MB-231 it was 0.1 µM; at STAT3, 0.15 µM.
Regarding `CS(=O)(=O)Nc1ccc2cc(C(=O)Nc3cccc(C4(c5ccc(F)cc5)CC4)c3)[nH]c2c1` [Example 425, N-(3-(1-(4-fluorophenyl)cyclopropyl)phenyl)-6-(methylsulfonamido)-1H-indole-2-carboxamide], the 50% inhibitory concentration (IC50) in the assay with LNCaP was determined as 1.3 µM; in the assay on MDA-MB-231, 0.38 µM; at STAT3, 0.46 µM.
Regarding `COc1cc(NC(=O)c2cc3cc(NS(C)(=O)=O)ccc3s2)cc(C2(c3cc(OC)cc(OC(F)(F)F)c3)CC2)c1` [Example 427, N-(3-methoxy-5-(1-(3-methoxy-5-(trifluoromethoxy)phenyl)cyclopropyl)phenyl)-5-(methylsulfonamido)benzo[b]thiophene-2-carboxamide], the results for the IC50 in the assay with LNCaP, with MDA-MB-231 and against STAT3 were 0.41 µM, 0.085 µM and 0.13 µM, respectively.
Consider `CS(=O)(=O)Nc1ccc2cc(C(=O)Nc3cc(OC(F)F)cc(C4(c5ccc(F)cc5)CC4)c3)[nH]c2c1` [Example 428, N-(3-(difluoromethoxy)-5-(1-(4-fluorophenyl)cyclopropyl)phenyl)-6-(methylsulfonamido)-1H-indole-2-carboxamide], for which the IC50 was 1.4 µM with LNCaP, 0.39 µM in the assay on MDA-MB-231 and 1 µM at STAT3.

The values above are taken from US10562912B2 (C&C Research Laboratories, priority 2013, dated 2020).
